Measurements as given in PubChem BioAssay AID192 (DTP/NCI, 2004).
Where “and” joins values, the source holds several entries; their conditions need not be identical. Equal values may be shown once. Toxic doses and inconclusive results are not listed. The calls were made as follows: active = survival T/C of 150% or more; inactive = T/C below 125% in these data.

System: BDF1 mice, B16 melanoma ip, median survival T/C
Experiment: NCI In Vivo Anticancer Drug Screen. Data for tumor model B16 Melanoma (intraperitoneal) in B6D2F1 (BDF1) mice
Details: endpoint: median survival time, higher = longer survival
Procedure, shortened: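 In this screen, activity was judged from survival or tumor size in treated versus vehicle-treated tumor-bearing mice, reported as T/C.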

[1] = dose: 100.0 mg/kg/injection, schedule: Q01DX009 (ip), vehicle: saline
[2] = dose: 200.0 mg/kg/injection, schedule: Q01DX009 (ip), vehicle: saline with Tween-80
[3] = dose: 100.0 mg/kg/injection, schedule: Q01DX009 (ip), vehicle: saline with Tween-80

Measured: T/C

CN1C(=O)C=CC1=O
inactive: dose: 0.5 mg/kg/injection, schedule: Q02DX009 (ip), vehicle: saline 109 % of control | dose: 1.0 mg/kg/injection, schedule: Q02DX009 (ip), vehicle: saline 99 % of control | dose: 2.0 mg/kg/injection, schedule: Q02DX009 (ip), vehicle: saline 98 % of control | dose: 4.0 mg/kg/injection, schedule: Q02DX009 (ip), vehicle: saline 90 % of control

O=C1C(=C(C(F)(F)F)C(F)(F)F)CCc2ccccc21
inactive: dose: 50.0 mg/kg/injection, schedule: Q04DX003 (ip), vehicle: Klucel (hydroxypropylcellulose) (HPC) 95 % of control | dose: 100.0 mg/kg/injection, schedule: Q04DX003 (ip), vehicle: Klucel (hydroxypropylcellulose) (HPC) 95 % of control | dose: 200.0 mg/kg/injection, schedule: Q04DX003 (ip), vehicle: Klucel (hydroxypropylcellulose) (HPC) 100 % of control

CNC(=O)Oc1cccn(C(=O)NC)c1=O
inactive: dose: 12.5 mg/kg/injection, schedule: Q01DX009 (ip), vehicle: saline 86 % of control | dose: 25.0 mg/kg/injection, schedule: Q01DX009 (ip), vehicle: saline 91 % of control and 93 % of control | dose: 50.0 mg/kg/injection, schedule: Q01DX009 (ip), vehicle: saline 87 % of control | dose: 75.0 mg/kg/injection, schedule: Q01DX009 (ip), vehicle: saline 88 % of control | [1] 86 % of control

COc1cc2cc3cc4cc(OC)c(OC)cc4c(C)[n+]3cc2cc1OC (tested in a mixture with another compound)
inactive: dose: 10.0 mg/kg/injection, schedule: Q01DX009 (ip), vehicle: Klucel (hydroxypropylcellulose) (HPC) 96 % of control | dose: 20.0 mg/kg/injection, schedule: Q01DX009 (ip), vehicle: Klucel (hydroxypropylcellulose) (HPC) 95 % of control

COc1ccc2c(c1OC)C13CCCCC1C(C2)[N+](C)(C)CC3 (centres undefined)
inactive: dose: 0.02 mg/kg/injection, schedule: Q01DX009 (ip), vehicle: Klucel (hydroxypropylcellulose) (HPC) 91 % of control | dose: 0.04 mg/kg/injection, schedule: Q01DX009 (ip), vehicle: Klucel (hydroxypropylcellulose) (HPC) 89 % of control | dose: 0.78 mg/kg/injection, schedule: Q01DX009 (ip), vehicle: Klucel (hydroxypropylcellulose) (HPC) 87 % of control | dose: 3.12 mg/kg/injection, schedule: Q01DX009 (ip), vehicle: Klucel (hydroxypropylcellulose) (HPC) 86 % of control

CCOc1ccccc1NC(=O)c1cc2ccccc2cc1O
inactive: [1] 115 % of control | dose: 200.0 mg/kg/injection, schedule: Q01DX009 (ip), vehicle: saline 118 % of control | dose: 400.0 mg/kg/injection, schedule: Q01DX009 (ip), vehicle: saline 121 % of control

CC(=O)OCC1OC(n2cnc3c(=S)nc[nH]c32)C(OC(C)=O)C1OC(C)=O (centres undefined)
inactive: dose: 50.0 mg/kg/injection, schedule: Q01DX009 (ip), vehicle: suspension in saline 114 % of control | dose: 100.0 mg/kg/injection, schedule: Q01DX009 (ip), vehicle: suspension in saline 109 % of control | dose: 100.0 mg/kg/injection, schedule: Q04DX003 (ip), vehicle: saline with Tween-80 106 % of control | dose: 200.0 mg/kg/injection, schedule: Q04DX003 (ip), vehicle: saline with Tween-80 100 % of control | dose: 400.0 mg/kg/injection, schedule: Q04DX003 (ip), vehicle: saline with Tween-80 91 % of control

O=C1C(F)=C(N2CC2)C(=O)C(N2CCOCC2)=C1N1CC1
inactive: dose: 0.75 mg/kg/injection, schedule: Q01DX009 (ip), vehicle: saline 118 % of control | dose: 1.5 mg/kg/injection, schedule: Q01DX009 (ip), vehicle: saline 108 % of control | dose: 3.0 mg/kg/injection, schedule: Q01DX009 (ip), vehicle: saline 100 % of control

CCC(C)c1ccc(O)c(C(C)CC)c1 (centres undefined)
inactive: dose: 88.0 mg/kg/injection, schedule: Q01DX009 (ip), vehicle: saline with Tween-80 123 % of control | dose: 133.0 mg/kg/injection, schedule: Q01DX009 (ip), vehicle: saline with Tween-80 108 % of control | [2] 105 % of control | dose: 300.0 mg/kg/injection, schedule: Q01DX009 (ip), vehicle: saline with Tween-80 108 % of control

Cc1ccc(Cl)cc1NS(=O)(=O)c1cccc([N+](=O)[O-])c1
inactive: dose: 50.0 mg/kg/injection, schedule: Q01DX009 (ip), vehicle: saline with Tween-80 111 % of control | [3] 107 % of control | [2] 100 % of control

CN(CCO)/N=N/c1nc[nH]c1C(N)=O
inactive: dose: 50.0 mg/kg/injection, schedule: Q01DX009 (ip), vehicle: carboxymethylcellulose (CMC) 105 % of control

Cc1cccc(/C=N\OCCc2ccccc2)n1
inactive: [3] 97 % of control | [2] 93 % of control
